# Experimental data from patent US6916607B2, “PEPTIDES AND PO[…] FROM THE SU[…] OF THE RAT COR[…] […] COR[…] USES OF THESE PRODUCTS FOR DIAGNOSIS FOR DETECTION OR T[…]” (Institute Pasteur, priority 1988, dated 2005).
# Test system: mRNA coding for SMR1 in the SMG
# Assay: Regulation of the accumulation of mRNA coding for SMR1 in the SMG of the rat by androgens (RNA transfer and hybridization with SMR1 cDNA probe)
# Type: in vivo, Wistar rats
# Experimental: 10 weeks old male and female Wistar rats were obtained from Iffa-Credo. The androgens were removed by castration and 10 days later 35 mg of testosterone (Sterandryl retard, Roussel) were injected by the intraperitoneal route in the cases indicated. In the cases indicated, the same dose of testosterone was administered to female rats. 8 weeks old DBA/2 and “Swiss” mice were obtained from the Pasteur Institute.
# The RNA was prepared from rat and mouse tissues as described in the literature (Tronik D. et al. 1987, EMBO J. 6, 983-987). The in vitro translation of the RNAs was carried out by using the mRNA-dependent translation system as a lysate in the presence of mRNA-dependent reticulocytes (Pelham H. RB et al., 1976, Eur. J. Biochem. 67, 247-256). The products were analysed by electrophoresis on a denaturing polyacrylamide-NaDodSO4 gel. […]
# Furthermore, various amounts (as indicated in the figure) of RNA from the SMG of male rats and female rats were subjected to electrophoresis on a 2% agarose-formaldehyde gel, they were transferred to filters and hybridized with the cDNA probe coding for SMR1. […] As is apparent in part B, the mRNA coding for SMR1 accumulates in very large quantities in the SMG of male Wistar rats, since an amount as low as 1.5 ng of total RNA was sufficient to give a hybridization signal. […]
smiles,measurement,setting,value
C[C@]12CC[C@H]3[C@@H](CCC4=CC(=O)CC[C@@]43C)[C@@H]1CC[C@@H]2O [testosterone],accumulation of mRNA coding for SMR1 in the SMG,"adult female rats, same dose (35 mg) of testosterone",caused the accumulation of mRNA coding for SMR1 in amounts similar to that observed in the males
same,amount of mRNA coding for SMR1 in the SMG,"castrated male rats, 35 mg testosterone by the intraperitoneal route 10 days after castration",restored the amount of mRNA coding for SMR1 to the same value as that observed in the non-castrated males
